Read-outs that look alike come from different tables or passages of the source.
Key:
[1] = target: GSK3α (Homo sapiens, UniProt P49840); assay: biochemical
Experimental: (§1) The kinase assay was performed in V-bottom 384-well plates. […] The reaction was incubated at room temperature for 20 hours and terminated by adding 45 μl of 35 mM EDTA to each sample. The reaction mixture was analyzed on the Caliper LabChip3000 (Caliper, Hopkinton, Mass.) by electrophoretic separation of the unphosphorylated substrate and phosphorylated product. […] Compounds were dissolved at 10 mM in dimethylsulfoxide (DMSO) and evaluated at eleven concentrations. IC50 values were derived by non-linear regression analysis.

[2] = target: GSK3β (Homo sapiens, UniProt P49841); assay: GSK3β kinase assay (Caliper LabChip3000, fluoresceinated peptide substrate); type: biochemical
Chain of GSK3β (P49841 whole entry, species assumed): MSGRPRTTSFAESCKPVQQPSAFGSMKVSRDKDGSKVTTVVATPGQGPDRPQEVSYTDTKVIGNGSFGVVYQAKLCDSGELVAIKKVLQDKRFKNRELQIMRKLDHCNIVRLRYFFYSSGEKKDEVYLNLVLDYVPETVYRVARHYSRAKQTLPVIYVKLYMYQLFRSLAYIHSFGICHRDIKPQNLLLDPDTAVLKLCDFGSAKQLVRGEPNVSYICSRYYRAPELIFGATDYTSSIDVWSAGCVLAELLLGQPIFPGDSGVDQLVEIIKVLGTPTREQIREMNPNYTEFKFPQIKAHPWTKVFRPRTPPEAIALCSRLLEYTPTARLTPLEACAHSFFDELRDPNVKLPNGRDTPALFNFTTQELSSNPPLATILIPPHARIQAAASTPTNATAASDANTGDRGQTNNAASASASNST
Experimental: as §1

[3] = system: pTau; assay: pTau assay (method not described); type: cell-based
[4] = second value of the cell, 250 pM enzyme, 20 uM ATP, 20 hours at room temperature, read-out: GSK3β/α (nM): GSK3α IC50
[5] = first value of the cell, 250 pM enzyme, 20 uM ATP, 20 hours at room temperature, read-out: GSK3β/α (nM): GSK3β IC50

Chain of GSK3α (P49840 whole entry, species assumed): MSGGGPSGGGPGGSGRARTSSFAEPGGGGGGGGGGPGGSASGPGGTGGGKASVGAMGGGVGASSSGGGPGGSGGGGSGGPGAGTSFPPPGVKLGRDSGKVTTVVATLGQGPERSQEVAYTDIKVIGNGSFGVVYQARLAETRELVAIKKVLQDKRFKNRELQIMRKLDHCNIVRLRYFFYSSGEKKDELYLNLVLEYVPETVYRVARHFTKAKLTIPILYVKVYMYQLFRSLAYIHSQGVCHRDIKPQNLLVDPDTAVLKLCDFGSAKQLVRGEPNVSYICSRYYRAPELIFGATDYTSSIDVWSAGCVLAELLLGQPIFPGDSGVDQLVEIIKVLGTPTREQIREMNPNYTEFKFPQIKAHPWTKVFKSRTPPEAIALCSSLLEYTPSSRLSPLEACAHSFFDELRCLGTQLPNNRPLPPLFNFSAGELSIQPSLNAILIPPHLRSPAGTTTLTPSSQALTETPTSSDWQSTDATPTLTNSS

Structure (SMILES)	IC50 [1, 4]	IC50 ([3]; read-out: pTau)	IC50 [2, 5]	further results
CC1CN(c2ccncc2NC(=O)c2ccnc(NC(=O)C3CC3)c2)CCO1 (racemic) [Example 46, 2-(Cyclopropanecarboxamido)-N-(4-(2-methylmorpholino)pyridin-3-yl)isonicotinamide]	–	–	–	IC50 [1]: 0.37 nM; IC50 [2]: 0.54 nM; IC50 ([3]; read-out: pTau (nM)): 57 nM
COc1ccc(NC(=O)c2ccnc(NC(=O)C3CC3)c2)cn1 [Example 7, 2-(Cyclopropanecarboxamido)-N-(6-methoxypyridin-3-yl)isonicotinamide]	1000 nM	≥ 10000 nM	–	–
O=C(Nc1cnccc1C1CCCC1)c1ccnc(NC(=O)C2CC2)c1 [Example 36, N-(4-cyclopentylpyridin-3-yl)-2-(cyclopropanecarboxamido)isonicotinamide]	–	800 nM	–	IC50 [2]: 41 nM
O=C(Nc1cnccc1C1CCCCC1)c1ccnc(NC(=O)C2CC2)c1 [Example 37, N-(4-cyclohexylpyridin-3-yl)-2-(cyclopropanecarboxamido)isonicotinamide]	–	1200 nM	–	IC50 [2]: 120 nM
C=C(C)c1ccncc1NC(=O)c1ccnc(NC(=O)C2CC2)c1 [Example 38, 2-(Cyclopropanecarboxamido)-N-(4-(prop-1-en-2-yl)pyridin-3-yl)isonicotinamide]	–	80 nM	–	IC50 [2]: 4.4 nM
CC(C)c1ccncc1NC(=O)c1ccnc(NC(=O)C2CC2)c1 [Example 39, 2-(Cyclopropanecarboxamido)-N-(4-isopropylpyridine-3-yl)isonicotinamide]	–	470 nM	–	IC50 [2]: 23 nM
Cc1cscc1-c1cncc(NC(=O)c2ccnc(NC(=O)C3CC3)c2)c1 [Example 130, 2-(cyclopropanecarboxamido)-N-(5-(4-methylthiophen-3-yl)pyridin-3-yl)isonicotinamide]	0.41 nM	–	2.5 nM	–
N#Cc1cscc1-c1cncc(NC(=O)c2ccnc(NC(=O)C3CC3)c2)c1 [Example 131, N-(5-(4-cyanothiophen-3-yl)pyridin-3-yl)-2-(cyclopropanecarboxamido)isonicotinamide]	0.76 nM	–	0.41 nM	–
O=C(Nc1cncc(C2CCCC2)c1)c1ccnc(NC(=O)C2CC2)c1 [Example 132, N-(5-cyclopentylpyridin-3-yl)-2-(cyclopropanecarboxamido)isonicotinamide]	8 nM	–	4.1 nM	–
CC(C)Oc1ccccc1-c1cncc(NC(=O)c2ccnc(NC(=O)C3CC3)c2)c1 [Example 136, 2-(cyclopropanecarboxamido)-N-(5-(2-isopropoxyphenyl)pyridin-3-yl)isonicotinamide]	5.4 nM	–	19 nM	–
O=C(Nc1cncc(-c2cccc(F)c2F)c1)c1ccnc(NC(=O)C2CC2)c1 [Example 137, 2-(cyclopropanecarboxamido)-N-(5-(2,3-difluorophenyl)pyridin-3-yl)isonicotinamide]	–	–	–	IC50 [1]: 0.74 nM; IC50 [2]: 3.4 nM
COc1cccc(-c2cncc(NC(=O)c3ccnc(NC(=O)C4CC4)c3)c2)c1F [Example 139, 2-(cyclopropanecarboxamido)-N-(5-(2-fluoro-3-methoxyphenyl)pyridin-3-yl)isonicotinamide]	0.81 nM	–	–	IC50 [2]: 3.7 nM
CCCOc1ccccc1-c1cncc(NC(=O)c2ccnc(NC(=O)C3CC3)c2)c1 [Example 146, 2-(cyclopropanecarboxamido)-N-(5-(2-propoxyphenyl)pyridin-3-yl)isonicotinamide]	3.4 nM	–	4.5 nM	–
O=C(Nc1cncc(-c2ccccc2OC(F)(F)F)c1)c1ccnc(NC(=O)C2CC2)c1 [Example 149, 2-(cyclopropanecarboxamido)-N-(5-(2-(trifluoromethoxy)phenyl)pyridin-3-yl)isonicotinamide]	1.75 nM	–	8.5 nM	–
O=C(Nc1cncc(C(F)(F)F)c1)c1ccnc(NC(=O)C2CC2)c1 [Example 150, 2-(cyclopropanecarboxamido)-N-(5-(trifluoromethyl)pyridin-3-yl)isonicotinamide]	17 nM	–	88 nM	–
Cn1cc(-c2cncc(NC(=O)c3ccnc(NC(=O)C4CC4)c3)c2)cn1 [Example 152, 2-(cyclopropanecarboxamido)-N-(5-(1-methyl-1H-pyrazol-4-yl)pyridin-3-yl)isonicotinamid]	1.4 nM	–	4.9 nM	–
Cc1ncc(-c2cncc(NC(=O)c3ccnc(NC(=O)C4CC4)c3)c2)s1 [Example 159, 2-(cyclopropanecarboxamido)-N-(5-(2-methylthiazol-5-yl)pyridin-3-yl)isonicotinamide]	1.9 nM	–	4.7 nM	–
Cn1cnc(NC(=O)c2ccnc(NC(=O)C3CC3)c2)c1 [Example 174, 2-(cyclopropanecarboxamido)-N-(1-methyl-1H-imidazol-4-yl)isonicotinamide]	1200 nM	≥ 10000 nM	–	–
O=C(Nc1cnc(-c2ccccn2)s1)c1ccnc(NC(=O)C2CC2)c1 [Example 176, 2-(cyclopropanecarboxamido)-N-(2-(pyridin-2-yl)thiazol-5-yl)isonicotinamide]	–	5500 nM	650 nM	–
Cc1ncc(NC(=O)c2ccnc(NC(=O)C3CC3)c2)s1 [Example 177, 2-(cyclopropanecarboxamido)-N-(2-methylthiazol-5-yl)isonicotinamide]	–	3900 nM	61 nM	–

The next lines start with results.

IC50 [1, 4]	IC50 ([3]; read-out: pTau)	IC50 [2, 5]	Structure (SMILES)	further results
–	200 nM	4.4 nM	O=C(Nc1cnccc1-c1ccsc1)c1ccnc(NC(=O)C2CC2)c1 [Example 31, 2-(Cyclopropanecarboxamido)-N-(4-(thiophen-3-yl)pyridin-3-yl)isonicotinamide]	–
–	3200 nM	160 nM	O=C(Nc1cnccc1-c1cccnc1)c1ccnc(NC(=O)C2CC2)c1 [Example 32, N-([3,4′-bipyridin]-3′-yl)-2-(cyclopropanecarboxamido)isonicotinamide]	–
–	670 nM	28 nM	O=C(Nc1cnccc1-c1ccncc1)c1ccnc(NC(=O)C2CC2)c1 [Example 33, N-([4,4′-bipyridin]-3-yl)-2-(cyclopropanecarboxamido)isonicotinamide]	–
4.4 nM	–	3.3 nM	O=C(Nc1cncc(-c2ccc(Cl)cc2)c1)c1ccnc(NC(=O)C2CC2)c1 [Example 133, N-(5-(4-chlorophenyl)pyridin-3-yl)-2-(cyclopropanecarboxamido)isonicotinamide]	–
1.8 nM	–	10.5 nM	O=C(Nc1cncc(-c2cccc(Cl)c2Cl)c1)c1ccnc(NC(=O)C2CC2)c1 [Example 138, 2-(cyclopropanecarboxamido)-N-(5-(2,3-dichlorophenyl)pyridin-3-yl)isonicotinamide]	–
2.8 nM	–	13 nM	O=C(Nc1cncc(-c2cccc(Cl)c2F)c1)c1ccnc(NC(=O)C2CC2)c1 [Example 140, N-(5-(3-chloro-2-fluorophenyl)pyridin-3-yl)-2-(cyclopropanecarboxamido)isonicotinamide]	–
4.3 nM	–	21 nM	O=C(Nc1cncc(-c2c(F)cccc2F)c1)c1ccnc(NC(=O)C2CC2)c1 [Example 141, 2-(cyclopropanecarboxamido)-N-(5-(2,6-difluorophenyl)pyridin-3-yl)isonicotinamide]	–
35 nM	–	190 nM	O=C(Nc1cncc(-c2cccc3cccnc23)c1)c1ccnc(NC(=O)C2CC2)c1 [Example 143, 2-(cyclopropanecarboxamido)-N-(5-(quinolin-8-yl)pyridin-3-yl)isonicotinamide]	–
15 nM	–	55 nM	CC(=O)c1ccccc1-c1cncc(NC(=O)c2ccnc(NC(=O)C3CC3)c2)c1 [Example 144, N-(5-(2-acetylphenyl)pyridin-3-yl)-2-(cyclopropanecarboxamido)isonicotinamide]	–
1.6 nM	–	5.3 nM	O=C(Nc1cncc(-c2cc(Cl)ccc2F)c1)c1ccnc(NC(=O)C2CC2)c1 [Example 153, N-(5-(5-chloro-2-fluorophenyl)pyridin-3-yl)-2-(cyclopropanecarboxamido)isonicotinamide]	–
18 nM	–	40 nM	CN(C)c1ccccc1-c1cncc(NC(=O)c2ccnc(NC(=O)C3CC3)c2)c1 [Example 154, 2-(cyclopropanecarboxamido)-N-(5-(2-(dimethylamino)phenyl)pyridin-3-yl)isonicotinamide]	–
–	5500 nM	–	O=C(Nc1cnc(-c2ccccc2)s1)c1ccnc(NC(=O)C2CC2)c1 [Example 181, 2-(cyclopropanecarboxamido)-N-(2-phenylthiazol-5-yl)isonicotinamide]	–
2.8 nM	1600 nM	–	O=C(Nc1cncc(-c2ccccc2)c1)c1ccnc(NC(=O)C2CCC2)c1 [Example 213, 2-(cyclobutanecarboxamido)-N-(5-phenylpyridin-3-yl)isonicotinamide]	–
0.25 nM	–	0.4 nM	O=C(Nc1cnccc1-c1ccccc1)c1ccnc(NC(=O)C2CC(Cl)C2)c1 (stereo not shown) [Example 215, 2-(3-Cholorocyclobutanecarboxamido)-N-(4-phenylpyridin-3-yl)isonicotinamide]	–
–	15 nM	–	O=C(Nc1cnccc1-c1ccc(Cl)cc1)c1ccnc(NC(=O)C2CC(Cl)C2)c1 (stereo not drawn) [Example 224, N-(4-(4-chlorophenyl)pyridin-3-yl)-2-((1,3-trans)-3-cholorocyclobutanecarboxamido)isonicotinamide]	–
–	43 nM	–	O=C(Nc1cnccc1-c1ccc(Cl)cc1)c1ccnc(NC(=O)C2CC(Cl)C2)c1 (stereo not drawn) [Example 225, N-(4-(4-chlorophenyl)pyridin-3-yl)-2-((1,3-cis)-3-cholorocyclobutanecarboxamido)isonicotinamide]	–

Source: US9809573B2, “Substituted pyridine derivatives useful as GSK-3 inhibitors” (priority 2013, dated 2017)
